# Source: US12493040B2, “Cancer detection method using sense of smell of nematode” (HIROTSU BIO SCIENCE INC., priority 2013, dated 2025)
# Tested on: RNAi-treated eri-1 (mg366) nematodes
# Test: RNAi screening of olfactory receptor genes: chemotaxis assay of RNAi-treated nematodes to odorants
# Type: in vivo, Caenorhabditis elegans
# Conditions: low concentration of attractant
# In short: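 Chemotaxis of adult RNAi-fed eri-1 (mg366) nematodes (30–50 per test) was measured toward low (1 μl, 10^−3 or 10^−4 dilution) or high (1 and 5 μl neat) odorant doses. Knockdown: 4 days feeding on E. coli from Ahringer library with IPTG and ampicillin. Differences called by z score at ±1.96, weaker cutoff ±0.96.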
compound,measurement,setting,value
c1cnccn1 [pyrazine],chemotaxis index,Control nematodes,0.49 ± 0.019
same,chemotaxis index,srh-10 RNAi-treated nematodes,0.67
same,chemotaxis index,srh-11 RNAi-treated nematodes,0.87
same,chemotaxis index,srh-15 RNAi-treated nematodes,0.78
same,chemotaxis index,srh-16 RNAi-treated nematodes,0.82
same,chemotaxis index,srh-18 RNAi-treated nematodes,0.73
same,chemotaxis index,srh-19 RNAi-treated nematodes,0.33
same,chemotaxis index,srh-22 RNAi-treated nematodes,0.82
same,chemotaxis index,srh-23 RNAi-treated nematodes,0.43
same,chemotaxis index,srh-24 RNAi-treated nematodes,0.57
same,chemotaxis index,srh-25 RNAi-treated nematodes,0.64
same,chemotaxis index,srh-27 RNAi-treated nematodes,0.32
same,chemotaxis index,srh-28 RNAi-treated nematodes,0.23
same,chemotaxis index,srh-36 RNAi-treated nematodes,0.53
same,chemotaxis index,srh-37 RNAi-treated nematodes,0.88
same,chemotaxis index,srh-39 RNAi-treated nematodes,0.11
same,chemotaxis index,srh-40 RNAi-treated nematodes,0.51
same,chemotaxis index,srh-41 RNAi-treated nematodes,0.71
same,chemotaxis index,srh-44 RNAi-treated nematodes,0.44
same,chemotaxis index,srh-45 RNAi-treated nematodes,0.74
same,chemotaxis index,srh-46 RNAi-treated nematodes,−0.04
same,chemotaxis index,srh-48 RNAi-treated nematodes,0.15
same,chemotaxis index,srh-49 RNAi-treated nematodes,0.52
same,chemotaxis index,srh-50 RNAi-treated nematodes,0.83
same,chemotaxis index,srh-51 RNAi-treated nematodes,0.31
same,chemotaxis index,srh-52 RNAi-treated nematodes,0.55
same,chemotaxis index,srh-55 RNAi-treated nematodes,0.56
same,chemotaxis index,srh-59 RNAi-treated nematodes,0.04
same,chemotaxis index,srh-60 RNAi-treated nematodes,0.52
same,chemotaxis index,srh-61 RNAi-treated nematodes,0.27
same,chemotaxis index,srh-67 RNAi-treated nematodes,0.39
same,chemotaxis index,srh-68 RNAi-treated nematodes,0.36
same,chemotaxis index,srh-69 RNAi-treated nematodes,0.35
same,chemotaxis index,srh-70 RNAi-treated nematodes,0.41
same,chemotaxis index,srh-71 RNAi-treated nematodes,0.56
same,chemotaxis index,srh-72 RNAi-treated nematodes,0.50
same,chemotaxis index,srh-74 RNAi-treated nematodes,0.26
same,chemotaxis index,srh-75 RNAi-treated nematodes,0.71
same,chemotaxis index,srh-77 RNAi-treated nematodes,0.44
same,chemotaxis index,srh-79 RNAi-treated nematodes,0.12
same,chemotaxis index,srh-80 RNAi-treated nematodes,0.40
same,chemotaxis index,srh-82 RNAi-treated nematodes,0.31
same,chemotaxis index,srh-83 RNAi-treated nematodes,0.38
same,chemotaxis index,srh-97 RNAi-treated nematodes,0.66
same,chemotaxis index,srh-99 RNAi-treated nematodes,0.29
same,chemotaxis index,srh-100 RNAi-treated nematodes,0.30
same,chemotaxis index,srh-104 RNAi-treated nematodes,−0.18
same,chemotaxis index,srh-105 RNAi-treated nematodes,0.32
same,chemotaxis index,srh-109 RNAi-treated nematodes,0.32
same,chemotaxis index,srh-111 RNAi-treated nematodes,−0.23
same,chemotaxis index,srh-113 RNAi-treated nematodes,0.35
same,chemotaxis index,srh-115 RNAi-treated nematodes,0.19
same,chemotaxis index,srh-116 RNAi-treated nematodes,0.35
same,chemotaxis index,srh-118 RNAi-treated nematodes,0.36
same,chemotaxis index,srh-119 RNAi-treated nematodes,0.37
same,chemotaxis index,srh-120 RNAi-treated nematodes,0.54
same,chemotaxis index,srh-122 RNAi-treated nematodes,0.47
same,chemotaxis index,srh-123 RNAi-treated nematodes,0.63
same,chemotaxis index,srh-125 RNAi-treated nematodes,0.39
same,chemotaxis index,srh-128 RNAi-treated nematodes,0.54
same,chemotaxis index,srh-129 RNAi-treated nematodes,0.71
same,chemotaxis index,srh-130 RNAi-treated nematodes,0.22
same,chemotaxis index,srh-214 RNAi-treated nematodes,0.72
same,chemotaxis index,srh-216 RNAi-treated nematodes,0.60
same,chemotaxis index,srh-217 RNAi-treated nematodes,0.94
same,chemotaxis index,srh-220 RNAi-treated nematodes,0.40
same,chemotaxis index,srh-222 RNAi-treated nematodes,0.65
same,chemotaxis index,srh-223 RNAi-treated nematodes,0.43
same,chemotaxis index,srh-227 RNAi-treated nematodes,0.35
same,chemotaxis index,srh-229 RNAi-treated nematodes,0.09
same,chemotaxis index,srh-233 RNAi-treated nematodes,0.49
same,chemotaxis index,srh-235 RNAi-treated nematodes,0.73
same,chemotaxis index,srh-236 RNAi-treated nematodes,0.44
same,chemotaxis index,srh-239 RNAi-treated nematodes,0.54
same,chemotaxis index,srh-241 RNAi-treated nematodes,0.78
same,chemotaxis index,srh-243 RNAi-treated nematodes,0.48
same,chemotaxis index,srh-244 RNAi-treated nematodes,0.34
same,chemotaxis index,srh-247 RNAi-treated nematodes,0.49
same,chemotaxis index,srh-250 RNAi-treated nematodes,0.55
same,chemotaxis index,srh-251 RNAi-treated nematodes,0.32
same,chemotaxis index,srh-252 RNAi-treated nematodes,0.87
same,chemotaxis index,srh-258 RNAi-treated nematodes,0.44
same,chemotaxis index,srh-261 RNAi-treated nematodes,0.57
same,chemotaxis index,srh-264 RNAi-treated nematodes,0.85
same,chemotaxis index,srh-266 RNAi-treated nematodes,−0.14
same,chemotaxis index,srh-274 RNAi-treated nematodes,0.12
same,chemotaxis index,srh-275 RNAi-treated nematodes,0.42
same,chemotaxis index,srh-276 RNAi-treated nematodes,0.44
same,chemotaxis index,srh-277 RNAi-treated nematodes,0.81
same,chemotaxis index,srh-279 RNAi-treated nematodes,0.37
same,chemotaxis index,srh-281 RNAi-treated nematodes,0.01
same,chemotaxis index,srh-282 RNAi-treated nematodes,0.55
same,chemotaxis index,srh-283 RNAi-treated nematodes,0.26
same,chemotaxis index,srh-284 RNAi-treated nematodes,0.49
same,chemotaxis index,srh-291 RNAi-treated nematodes,0.82
same,chemotaxis index,srh-292 RNAi-treated nematodes,0.43
same,chemotaxis index,srh-293 RNAi-treated nematodes,0.59
same,chemotaxis index,srh-297 RNAi-treated nematodes,0.29
same,chemotaxis index,srh-298 RNAi-treated nematodes,0.33
same,chemotaxis index,srh-308 RNAi-treated nematodes,0.15
